Measurements: patent US8058311B2, “Imaging 18F or 11C-labelled alkylthiophenyl guanidines” (Hammersmith Imanet Limited, priority 2005, dated 2011)

Experiment: Biodistribution: radioactivity in rat peripheral organs and body fluids after intravenous injection
Format: in vivo
Experimental: N-(2-Chloro-5-(2-[^18F]fluoro-ethylthio))-phenyl-N′-(3-methylthio)-phenyl-N′-methylguanidine was prepared according to Example 4 (synthesis formulation ˜3% ethanol in 0.9% w/v saline solution) with a radiochemical purity of ˜99% and, at time of injection, the specific activity ranged from 4-16 GBq/nmol^−1. Biodistribution and blood data were from 11 adult male Sprague-Dawley rats (body weight range, 269 to 329 g; mean±S.E.=300±18 g). N-(2-Chloro-5-(2-[^18F]fluoro-ethylthio))-phenyl-N′-(3-methylthio)-phenyl-N′-methylguanidine was injected directly into the tail vein of each rat whilst under isoflurane anaesthesia. Each animal was then allowed to recover from anaesthesia. At designated times after injection, rats were sacrificed by cervical dislocation under anaesthesia and brain and body tissues were rapidly sampled.
The data were acquired using two syntheses. Rats were given an average of 86 MBq (85.3 MBq for first experimental day and 87.3 MBq for the second experimental day), in a volume of 0.20 ml (synthesis formulation ˜3% alcohol), via direct intravenous injection through the tail vein. The mass of co-injected N-(2-Chloro-5-(2-[^18F]fluoro-ethylthio))-phenyl-N′-(3-methylthio)-phenyl-N′-methylguanidine ranged from 0.7-2.9 nmol.kg^−1. Details of the methodology, together with processing and counting of the samples can be found in Hume et al., Nucl. Med. Biol. (1991) 18: 339-351. Data were normalised for injected radioactivity and body weight, giving: ‘uptake units’=(cpm.g^−1 wet weight tissue)·(injected cpm.g^−1 body weight)^−1 Results
Radioactivity concentration data are additionally collated in Tables 1 (peripheral tissue) and 2 (brain). As metabolite studies were not carried out, the proportion of the total radioactivity reflecting label associated with parent N-(2-Chloro-5-(2-[^18F]fluoro-ethylthio))-phenyl-N′-(3-methylthio)-phenyl-N′-methylguanidine is not known. Note, Blood and plasma samples were collected post-mortem from the heart ventricle.

SMILES: CSc1cccc(N(C)C(=N)Nc2cc(SCC[18F])ccc2Cl)c1 [N-(2-Chloro-5-(2-[^18F]fluoro-ethylthio))-phenyl-N′-(3-methylthio)-phenyl-N′-methylguanidine]
- peripheral clearance route: via kidney to urine and via the intestine
- radioactivity in bone (2 min, n = 1): 1.355 uptake units
- radioactivity in fat (2 min, n = 1): 0.199 uptake units
- radioactivity in heart (ventricle) (2 min, n = 1): 6.412 uptake units
- radioactivity in kidney (2 min, n = 1): 12.975 uptake units
- radioactivity in large intestinal content (2 min, n = 1): 0.113 uptake units
- radioactivity in large intestine (2 min, n = 1): 3.338 uptake units
- radioactivity in liver (2 min, n = 1): 5.251 uptake units
- radioactivity in lung (2 min, n = 1): 32.475 uptake units
- radioactivity in skeletal muscle (2 min, n = 1): 0.288 uptake units
- radioactivity in skin (2 min, n = 1): 0.338 uptake units
- radioactivity in small intestinal content (2 min, n = 1): 1.390 uptake units
- radioactivity in small intestine (2 min, n = 1): 4.537 uptake units
- radioactivity in spleen (2 min, n = 1): 3.985 uptake units
- radioactivity in stomach (2 min, n = 1): 0.843 uptake units
- radioactivity in testis (2 min, n = 1): 0.456 uptake units
- radioactivity in urine (2 min, n = 1): 0.109 uptake units
- radioactivity in bone (5 min, n = 1): 1.440 uptake units
- radioactivity in fat (5 min, n = 1): 0.814 uptake units
- radioactivity in heart (ventricle) (5 min, n = 1): 2.761 uptake units
- radioactivity in kidney (5 min, n = 1): 10.113 uptake units
- radioactivity in large intestinal content (5 min, n = 1): 0.148 uptake units
- radioactivity in large intestine (5 min, n = 1): 3.442 uptake units
- radioactivity in liver (5 min, n = 1): 5.648 uptake units
- radioactivity in lung (5 min, n = 1): 25.015 uptake units
- radioactivity in skeletal muscle (5 min, n = 1): 0.517 uptake units
- radioactivity in skin (5 min, n = 1): 0.517 uptake units
- radioactivity in small intestinal content (5 min, n = 1): 1.449 uptake units
- radioactivity in small intestine (5 min, n = 1): 3.845 uptake units
- radioactivity in spleen (5 min, n = 1): 3.676 uptake units
- radioactivity in stomach (5 min, n = 1): 1.245 uptake units
- radioactivity in testis (5 min, n = 1): 0.528 uptake units
- radioactivity in urine (5 min, n = 1): 16.760 uptake units
- radioactivity in bone (10 min, n = 2): 0.793 uptake units
- radioactivity in fat (10 min, n = 2): 0.234 uptake units
- radioactivity in heart (ventricle) (10 min, n = 2): 1.119 uptake units
- radioactivity in kidney (10 min, n = 2): 3.931 uptake units
- radioactivity in large intestinal content (10 min, n = 2): 0.109 uptake units
- radioactivity in large intestine (10 min, n = 2): 1.359 uptake units
- radioactivity in liver (10 min, n = 2): 3.199 uptake units
- radioactivity in lung (10 min, n = 2): 10.229 uptake units
- radioactivity in skeletal muscle (10 min, n = 2): 0.391 uptake units
- radioactivity in skin (10 min, n = 2): 0.248 uptake units
- radioactivity in small intestinal content (10 min, n = 2): 1.162 uptake units
- radioactivity in small intestine (10 min, n = 2): 1.618 uptake units
- radioactivity in spleen (10 min, n = 2): 3.008 uptake units
- radioactivity in stomach (10 min, n = 2): 0.532 uptake units
- radioactivity in testis (10 min, n = 2): 0.363 uptake units
- radioactivity in urine (10 min, n = 2): 13.589 uptake units
- radioactivity in bone (30 min, n = 3): 1.014 ± 0.019 uptake units
- radioactivity in fat (30 min, n = 3): 0.613 ± 0.175 uptake units
- radioactivity in heart (ventricle) (30 min, n = 3): 0.740 ± 0.019 uptake units
- radioactivity in kidney (30 min, n = 3): 3.287 ± 0.208 uptake units
- radioactivity in large intestinal content (30 min, n = 3): 0.445 ± 0.035 uptake units
- radioactivity in large intestine (30 min, n = 3): 1.619 ± 0.494 uptake units
- radioactivity in liver (30 min, n = 3): 6.023 ± 0.699 uptake units
- radioactivity in lung (30 min, n = 3): 3.786 ± 0.292 uptake units
- radioactivity in skeletal muscle (30 min, n = 3): 0.487 ± 0.036 uptake units
- radioactivity in skin (30 min, n = 3): 0.491 ± 0.019 uptake units
- radioactivity in small intestinal content (30 min, n = 3): 6.002 ± 3.338 uptake units
- radioactivity in small intestine (30 min, n = 3): 2.241 ± 0.617 uptake units
- radioactivity in spleen (30 min, n = 3): 2.713 ± 0.086 uptake units
- radioactivity in stomach (30 min, n = 3): 1.558 ± 0.443 uptake units
- radioactivity in testis (30 min, n = 3): 0.619 ± 0.081 uptake units
- radioactivity in urine (30 min, n = 3): 49.593 ± 30.733 uptake units
- radioactivity in bone (60 min, n = 3): 0.944 ± 0.305 uptake units
- radioactivity in fat (60 min, n = 3): 0.405 ± 0.358 uptake units
- radioactivity in heart (ventricle) (60 min, n = 3): 0.505 ± 0.104 uptake units
- radioactivity in kidney (60 min, n = 3): 2.429 ± 0.527 uptake units
- radioactivity in large intestinal content (60 min, n = 3): 1.176 ± 1.109 uptake units
- radioactivity in large intestine (60 min, n = 3): 7.291 ± 10.308 uptake units
- radioactivity in liver (60 min, n = 3): 3.659 ± 0.822 uptake units
- radioactivity in lung (60 min, n = 3): 2.387 ± 0.195 uptake units
- radioactivity in skeletal muscle (60 min, n = 3): 0.410 ± 0.096 uptake units
- radioactivity in skin (60 min, n = 3): 0.435 ± 0.109 uptake units
- radioactivity in small intestinal content (60 min, n = 3): 10.518 ± 7.766 uptake units
- radioactivity in small intestine (60 min, n = 3): 1.841 ± 0.678 uptake units
- radioactivity in spleen (60 min, n = 3): 1.675 ± 0.135 uptake units
- radioactivity in stomach (60 min, n = 3): 1.227 ± 0.351 uptake units
- radioactivity in testis (60 min, n = 3): 0.605 ± 0.150 uptake units
- radioactivity in urine (60 min, n = 3): 23.375 ± 18.208 uptake units
- radioactivity in bone (90 min, n = 1): 0.889 uptake units
- radioactivity in fat (90 min, n = 1): 0.548 uptake units
- radioactivity in heart (ventricle) (90 min, n = 1): 0.464 uptake units
- radioactivity in kidney (90 min, n = 1): 2.127 uptake units
- radioactivity in large intestinal content (90 min, n = 1): 0.764 uptake units
- radioactivity in large intestine (90 min, n = 1): 0.775 uptake units
- radioactivity in liver (90 min, n = 1): 2.856 uptake units
- radioactivity in lung (90 min, n = 1): 2.150 uptake units
- radioactivity in skeletal muscle (90 min, n = 1): 0.357 uptake units
- radioactivity in skin (90 min, n = 1): 0.387 uptake units
- radioactivity in small intestinal content (90 min, n = 1): 8.700 uptake units
- radioactivity in small intestine (90 min, n = 1): 1.942 uptake units
- radioactivity in spleen (90 min, n = 1): 1.418 uptake units
- radioactivity in stomach (90 min, n = 1): 1.103 uptake units
- radioactivity in testis (90 min, n = 1): 0.559 uptake units
- radioactivity in urine (90 min, n = 1): 26.947 uptake units
- de-fluorination (from bone uptake) (90 minutes): no evidence of de-fluorination
- uptake in lung (at 90 minutes): 2 uptake units
- initial uptake in bone (initial): 1.4
- initial uptake in lung (initial): ~30 uptake units
- initial content in skeletal muscle, skin and testis (low, retained over the course of the experiment): ~0.4 uptake units
- uptake in bone after decrease (over the 90 minutes of the experiment): ~0.8
